Laboratory results published in ChEMBL document CHEMBL1152369, “Unsymmetrical non-adamantyl N,N'-diaryl urea and amide inhibitors of soluble expoxide hydrolase” (Bioorg Med Chem Lett, 2009).

How the values were obtained:
[1] = Cmax in Sprague-Dawley rat at 5 mg/kg, po by LC/MS/MS analysis; type: ADME, organism-based; parameters: dose 5 mg/kg, route oral; conditions: in vivo
[2] = molecular target: T1, Bifunctional epoxide hydrolase 2 (Homo sapiens, UniProt P34913); assay: Inhibition of human soluble epoxide hydrolase by fluorescent endpoint assay
T1 sequence (P34913 whole entry): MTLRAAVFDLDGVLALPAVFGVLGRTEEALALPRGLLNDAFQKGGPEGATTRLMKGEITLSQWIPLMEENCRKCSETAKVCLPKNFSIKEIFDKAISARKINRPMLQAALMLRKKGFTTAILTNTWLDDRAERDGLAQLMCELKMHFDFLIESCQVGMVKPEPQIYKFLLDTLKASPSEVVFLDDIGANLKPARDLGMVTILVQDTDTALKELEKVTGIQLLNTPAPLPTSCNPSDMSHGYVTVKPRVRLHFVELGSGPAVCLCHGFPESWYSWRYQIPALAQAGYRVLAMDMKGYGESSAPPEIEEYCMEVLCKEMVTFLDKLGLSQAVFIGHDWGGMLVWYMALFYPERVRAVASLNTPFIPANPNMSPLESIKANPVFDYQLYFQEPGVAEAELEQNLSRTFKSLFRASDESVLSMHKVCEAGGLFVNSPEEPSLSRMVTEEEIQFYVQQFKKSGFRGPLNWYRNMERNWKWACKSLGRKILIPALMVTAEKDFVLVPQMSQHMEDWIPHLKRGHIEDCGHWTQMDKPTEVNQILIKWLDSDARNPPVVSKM

[3] = AUC (0 to 24 hrs) in Sprague-Dawley rat at 5 mg/kg, po by LC/MS/MS analysis; type: ADME, organism-based; parameters: time < 24 hr, dose 5 mg/kg, route oral; conditions: plasma

O=C(Nc1ccc(C(F)(F)F)cc1)Nc1cccc(OCCCN2CCOCC2)c1
Cmax [1]: 5 ng/mL | IC50 [2]: 1 nM | AUC(0-t) at 24 h [3]: 8 ng·h/mL

O=C(Nc1ccc(OC(F)(F)F)cc1)Nc1cccc(OCCCN2CCOCC2)c1
IC50 [2]: 8 nM

O=C(Nc1cccc(OCCCN2CCOCC2)c1)NC1CCCCC1
Cmax [1]: 102 ng/mL | AUC(0-t) at 24 h [3]: 131 ng·h/mL

O=C(Nc1ccccc1)Nc1cccc(OCCCN2CCOCC2)c1
Cmax [1]: 1570 ng/mL | IC50 [2]: 38 nM | AUC(0-t) at 24 h [3]: 3570 ng·h/mL

O=C(CC12CC3CC(CC(C3)C1)C2)Nc1ccc(OCCCN2CCOCC2)cc1
IC50 [2]: 1.3 nM

O=C(Nc1ccc(F)c(OCCCN2CCOCC2)c1)NC1CCCCC1
IC50 [2]: 6.5 nM

O=C(Cc1ccc2c(c1)OCO2)Nc1cccc(OCCCN2CCOCC2)c1
IC50 [2]: 365 nM

CN(C)c1cccc(NC(=O)Nc2cccc(OCCCN3CCOCC3)c2)c1
IC50 [2]: 240 nM

O=C(Nc1ccc(Cl)cc1)Nc1ccc(F)c(OCCCN2CCOCC2)c1
IC50 [2]: 4.8 nM

O=C(Cc1ccc(F)c(F)c1)Nc1cccc(OCCCN2CCOCC2)c1
IC50 [2]: 321 nM

CC(C)(C)NC(=O)Nc1cccc(OCCCN2CCOCC2)c1
IC50 [2]: 1040 nM

O=C(Nc1ccc(Cl)cc1)Nc1ccc(OCCCN2CCOCC2)cc1
IC50 [2]: 1.5 nM

O=C(Nc1ccc(F)cc1)Nc1cccc(OCCCN2CCOCC2)c1
Cmax [1]: 123 ng/mL | IC50 [2]: 14 nM | AUC(0-t) at 24 h [3]: 491 ng·h/mL

O=C(Cc1cccnc1)Nc1cccc(OCCCN2CCOCC2)c1
IC50 [2]: 14000 nM

O=C(Nc1ccc(OCCCN2CCOCC2)cc1)Nc1ccc(OC(F)(F)F)cc1
IC50 [2]: 0.8 nM

O=C(Nc1ccc(F)cc1)Nc1ccc(F)c(OCCCN2CCOCC2)c1
IC50 [2]: 40 nM

O=C(CC12CC3CC(CC(C3)C1)C2)Nc1ccc(F)c(OCCCN2CCOCC2)c1
IC50 [2]: 6.6 nM

CC(C)(C)CC(=O)Nc1cccc(OCCCN2CCOCC2)c1
IC50 [2]: 1550 nM

O=C(Cc1ccccc1)Nc1ccc(OCCCN2CCOCC2)cc1
IC50 [2]: 870 nM

O=C(Cc1ccc(C(F)(F)F)cc1)Nc1ccc(OCCCN2CCOCC2)cc1
IC50 [2]: 54 nM

O=C(Cc1ccc(OC(F)(F)F)cc1)Nc1ccc(OCCCN2CCOCC2)cc1
IC50 [2]: 42 nM

O=C(Cc1ccc(Cl)cc1)Nc1cccc(OCCCN2CCOCC2)c1
IC50 [2]: 116 nM

O=C(Nc1ccccc1)Nc1ccc(F)c(OCCCN2CCOCC2)c1
IC50 [2]: 81 nM

O=C(Nc1cccc(OCCCN2CCOCC2)c1)Nc1cccc(C(F)(F)F)c1
IC50 [2]: 13.8 nM

O=C(Nc1cccc(OCCCN2CCOCC2)c1)Nc1ccc2c(c1)OCO2
Cmax [1]: 218 ng/mL | IC50 [2]: 33 nM | AUC(0-t) at 24 h [3]: 753 ng·h/mL

O=C(Cc1ccc(Cl)cc1)Nc1ccc(OCCCN2CCOCC2)cc1
IC50 [2]: 140 nM

O=C(Nc1cccc(OCCCN2CCOCC2)c1)Nc1c(F)cc(F)cc1F
IC50 [2]: 1880 nM

O=C(Nc1ccc(F)c(OCCCN2CCOCC2)c1)NC12CC3CC(CC(C3)C1)C2
IC50 [2]: 0.8 nM

O=C(Nc1ccc(C(F)(F)F)cc1)Nc1ccc(F)c(OCCCN2CCOCC2)c1
IC50 [2]: 1.3 nM

O=C(Nc1cccnc1)Nc1cccc(OCCCN2CCOCC2)c1
IC50 [2]: 5000 nM

O=C(Nc1ccc(OC(F)(F)F)cc1)Nc1ccc(F)c(OCCCN2CCOCC2)c1
IC50 [2]: 0.8 nM

O=C(Nc1ccccc1)Nc1ccc(OCCCN2CCOCC2)cc1
IC50 [2]: 39 nM

O=C(Nc1ccc(OCCCN2CCOCC2)cc1)Nc1ccc(C(F)(F)F)cc1
Cmax [1]: 263 ng/mL | IC50 [2]: 0.8 nM | AUC(0-t) at 24 h [3]: 1050 ng·h/mL

O=C(Nc1cccc(OCCCN2CCOCC2)c1)Nc1ccc(F)c(F)c1
Cmax [1]: 3 ng/mL | IC50 [2]: 11 nM | AUC(0-t) at 24 h [3]: 3 ng·h/mL

O=C(Cc1ccc(OC(F)(F)F)cc1)Nc1cccc(OCCCN2CCOCC2)c1
IC50 [2]: 43 nM

O=C(Cc1ccc(OC(F)(F)F)cc1)Nc1ccc(F)c(OCCCN2CCOCC2)c1
IC50 [2]: 145 nM

O=C(CC12CC3CC(CC(C3)C1)C2)NC1CCCC(OCCCN2CCOCC2)C1 (stereo not drawn)
IC50 [2]: 5.2 nM

O=C(NC1CCCC(OCCCN2CCOCC2)C1)NC12CC3CC(CC(C3)C1)C2 (stereo not drawn)
IC50 [2]: 2.5 nM

O=C(Nc1cccc(OCCCN2CCOCC2)c1)Nc1c(Cl)cccc1Cl
IC50 [2]: 10000 nM

O=C(Cc1ccc(F)cc1)Nc1cccc(OCCCN2CCOCC2)c1
Cmax [1]: 48 ng/mL | IC50 [2]: 550 nM | AUC(0-t) at 24 h [3]: 57 ng·h/mL

O=C(Nc1ccc(Cl)cc1)Nc1cccc(OCCCN2CCOCC2)c1
Cmax [1]: 6 ng/mL | IC50 [2]: 2 nM | AUC(0-t) at 24 h [3]: 9 ng·h/mL

O=C(Cc1ccc(C(F)(F)F)cc1)Nc1ccc(F)c(OCCCN2CCOCC2)c1
IC50 [2]: 156 nM

O=C(Nc1cccc(OCCCN2CCOCC2)c1)Nc1ccc(F)cc1F
IC50 [2]: 121 nM

O=C(Nc1ccc(OCCCN2CCOCC2)cc1)NC1CCCCC1
Cmax [1]: 669 ng/mL | IC50 [2]: 5.4 nM | AUC(0-t) at 24 h [3]: 863 ng·h/mL
